Source: patent publication US20260355115A1, “SUSTAINED-RELEASE MICROSPHERES INCLUDING GLP-1 RECEPTOR AGONIST OR PHARMACEUTICALLY ACCEPTABLE SALT THEREOF AND USE THEREOF” (PEPTRON, INC., priority 2022, published 2026)

Legend:
[1] = Pharmacokinetic profile of sustained-release formulation in minipigs (s.c., LC-MS/MS of blood); format: in vivo; conditions: 0.08 mpk
Method: Next, in order to evaluate the pharmacokinetics in medium-sized animals, the sustained-release formulation of Example 3 according to the present invention was administered to minipigs, and the drug release patterns within the microspheres in the body were evaluated.
After subcutaneous injection (S.C) of drug at a dose of 0.08 mpk (mg/kg) into 20 to 30 kg of male SPF minipigs, the blood concentration of semaglutide was observed over time. A 2.5 ml of blood was collected from the jugular vein at 1 hour, 6 hours, 12 hours, 24 hours, 2 days, 3 days, 5 days, 7 days, 9 days, 11 days, 14 days, 16 days, 18 days, 21 days, 24 days, 28 days, 31 days, 35 days, 42 days, 49 days, 56 days, 63 days, and 70 days (total 23 points) after injection, respectively, stored at −80 °C, and then subjected to LC-MS/MS analysis.

[2] = Evaluation of anti-obesity efficacy in diet-induced obesity (DIO) mouse model; format: in vivo, C57BL/6J-DIO mice; conditions: 0.1 mpk s.c. QD, 8 weeks, 60% HFD
Method: The sustained-release formulation of Example 3 according to the present invention was administered to a diet-induced obesity (DIO) mouse model to confirm the anti-obesity efficacy.
Sixteen-week-old male C57BL/6J and C57BL/6J-DIO mice (The Jackson Laboratory (JAX), Saeron Bio) were used in the study. After introduction, the mice were sufficiently fed with a regular chow diet (5 kcal % of fat, PicoLab, #5053, USA) or a high fat diet (60 kcal % of fat, Research diet, D12492, USA) together with water, maintained at a temperature of 22±2 °C and a humidity of 50±10%, and acclimated in individual cages under an automatically controlled 12-hour light/dark cycle (dark: 7 pm to 7 am). After one week of acclimation, all prepared subjects were administered and acclimated, and clinical signs (activity, stool abnormalities, bleeding, wounds, deformities, skin, hair, eye abnormalities, etc.) were observed twice a day (when administered in the morning and when monitored in the afternoon).
To evaluate body weight and food intake, the drug was administered for 8 weeks under conditions described in Table 6, and body weight (FX-2000i, A&D company, 0.01 to 2200 g) and food intake (CSG201F, OHAUS, 0.1 g to 200 g) were measured daily starting from the first day of administration. All result values were expressed as the mean±standard error, and the statistical significance of the group was calculated through an independent t-test between test substance administration groups.
The body weight measurement results were shown in FIG. 5A, and the body weight gain rate (ΔBody weight from baseline (vs Con(-)), %) was shown in FIG. 5B. This was shown as the body weight change (%) calculated by comparing the drug-administered groups to the negative control group.

Release duration of semaglutide ([1]; formulation containing the microspheres of Example 3, compared with S.D. rats): longer in minipigs
SMILES: CC[C@H](C)[C@H](NC(=O)[C@H](Cc1ccccc1)NC(=O)[C@H](CCC(=O)O)NC(=O)[C@H](CCCCNC(=O)COCCOCCNC(=O)COCCOCCNC(=O)CC[C@H](NC(=O)CCCCCCCCCCCCCCCCC(=O)O)C(=O)O)NC(=O)[C@H](C)NC(=O)[C@H](C)NC(=O)[C@H](CCC(N)=O)NC(=O)CNC(=O)[C@H](CCC(=O)O)NC(=O)[C@H](CC(C)C)NC(=O)[C@H](Cc1ccc(O)cc1)NC(=O)[C@H](CO)NC(=O)[C@H](CO)NC(=O)[C@@H](NC(=O)[C@H](CC(=O)O)NC(=O)[C@H](CO)NC(=O)[C@@H](NC(=O)[C@H](Cc1ccccc1)NC(=O)[C@@H](NC(=O)CNC(=O)[C@H](CCC(=O)O)NC(=O)C(C)(C)NC(=O)[C@@H](N)Cc1cnc[nH]1)[C@@H](C)O)[C@@H](C)O)C(C)C)C(=O)N[C@@H](C)C(=O)N[C@@H](Cc1c[nH]c2ccccc12)C(=O)N[C@@H](CC(C)C)C(=O)N[C@H](C(=O)N[C@@H](CCCNC(=N)N)C(=O)NCC(=O)N[C@@H](CCCNC(=N)N)C(=O)NCC(=O)O)C(C)C [semaglutide, N^6,26-{18-[N-(17carboxyheptadecanoyl)-L-γ-glutamyl]-10-oxo-3,6,12,15-tetraoxa-9,18-diazaoctanoyl}-[8 (2-amino-2-propanoic acid), 34-L-arginine] human glucagon-like peptide 1(7-37)]
Initial burst release or delayed release ([1]; formulation containing the microspheres of Example 3): no initial burst release or delayed release in minipigs | Body weight loss rate (ΔBody weight from baseline vs Con(-)) [2]: statistically significant (p<0.05) body weight loss rate | Body weight vs negative control group [2]: statistically significant decrease (p<0.05) in body weight | Food intake vs negative control group [2]: statistically significant decrease (p<0.05) in food intake
